Read-outs that look alike come from different tables or passages of the source.
Assays:
Format in all cases: cell-based, human
MCF-7/HYOR cells [1] = test: Tumor cell proliferation assay, M. hyorhinis-infected MCF-7 cells; details: for IC50: Homo sapiens, MCF7; for Ratio (1)/(2) MCF-7/HYOR: IC50 in the absence of TPi to IC50 in the presence of TPi; for Anti-proliferative activity in MCF-7/HYOR after three days pre-incubation with doxycycline / Anti-proliferative activity in MCF-7/HYOR after three days pre-incubation with plasmocin: 3 days
Protocol: Mycoplasma hyorhinis (ATCC 17981) was obtained from the American Type Culture Collection (ATCC, Manassas, Va.). The freeze-dried bacteria were reconstituted by adding 1 ml of DMEM. […] The co-culture of MCF-7 cells and M. hyorhinis was maintained under the same conditions as the uninfected MCF-7 cells. […] The cells were incubated for another 4 days, trypsinized and counted by a Coulter counter (Analis, Suarlée, Belgium).

MCF-7 cells = test: Tumor cell proliferation assay, uninfected MCF-7 cells; details: for IC50: Homo sapiens, uninfected MCF-7; for Ratio (1)/(2) MCF-7: IC50 in the absence of TPi to IC50 in the presence of TPi
Protocol: MCF-7 and MCF-7/HYOR cells were seeded in 48-well plates at 10,000 cells/cm^2. […] of the test compounds (5FU, 5′DFUR, CIdUrd, BrdUrd, IdUrd and TFT) with or without 10 μM TPi were added. The cells were incubated for another 4 days, trypsinized and counted by a Coulter counter (Analis, Suarlée, Belgium). In some experiments, the antibiotic plasmocin was added one or three days before addition of the test compounds.

MCF-7/HYOR cells [2] = test: Nucleotide incorporation assay, MCF-7/HYOR compared with MCF-7 cells; details: 1 μCi radiolabeled compound; FIG. 4
Protocol: MCF-7 and MCF-7/HYOR cells were seeded at 10,000 cells/cm. After 48 hours, cells were treated with 1 μCi of ^3H-labeled nucleoside with or without 10 μM TPi. 16 h later, the medium was removed and the cells were washed twice with PBS. Next, the cells were trypsinized, transferred to Eppendorf tubes and centrifuged for 10 minutes at 1,400 rpm. The pellet was resuspended in 1 ml absolute ice-cold methanol and kept on ice for 20 minutes. After centrifugation for 20 minutes at 13,000 rpm the pellet was washed twice with methanol, resuspended in methanol and transferred to scintillation vials containing 9 ml of Ready safe liquid scintillation reagent (‘Hisafe 3’, Perkin Elmer, Waltham, Mass.). The radioactivity was measured by a Liquid scintillation analyzer (2300 TR, Packard, Canberra, Australia).

MCF-7/HYOR cell cultures = test: Nucleoside metabolism experiments, distribution of drug-derived radiolabel in MCF-7/HYOR cell cultures; details: MCF-7/HYOR
Protocol: Next, the cells were trypsinized, transferred to Eppendorf tubes and centrifuged for 10 minutes at 1,400 rpm. The pellet was resuspended in 1 ml absolute ice-cold methanol and kept on ice for 20 minutes. After centrifugation for 20 minutes at 13,000 rpm the pellet was washed twice with methanol, resuspended in methanol and transferred to scintillation vials containing 9 ml of Ready safe liquid scintillation reagent (‘Hisafe 3’, Perkin Elmer, Waltham, Mass.). The radioactivity was measured by a Liquid scintillation analyzer (2300 TR, Packard, Canberra, Australia). […] Next, the cells were incubated in 0.5 ml absolute ice-cold methanol and kept on ice for 20 minutes. After centrifugation for 20 minutes at 13,000 rpm, the supernatant was subjected to HPLC analysis. […] The amount of compound incorporated into nucleic acids was measured as described above.

[3] = M. hyorhinis-infected MCF-7, no TPi, no plasmocin, read-out: IC50 MCF-7/HYOR As such
[4] = M. hyorhinis-infected MCF-7, with 10 μM TPi, read-out: IC50 MCF-7/HYOR +TPi (10 μM)
[5] = MCF7, 96 h, no TPi, 4 days, read-out: IC50 MCF-7 As such
[6] = MCF7, with 10 μM TPi, read-out: IC50 MCF-7 +TPi (10 μM)
[7] = plasmocin 25 μg/ml, 1 day pretreatment, read-out: IC50 MCF-7/HYOR +plasmocin (25 μg/ml) 1 day prior to addition of test compounds
[8] = plasmocin 25 μg/ml, 3 days pretreatment, read-out: IC50 MCF-7/HYOR +plasmocin (25 μg/ml) 3 days prior to addition of test compounds

SMILES | IC50 (MCF-7/HYOR cells [1]; [3]) | IC50 (MCF-7/HYOR cells [1]; [4]) | Ratio (1)/(2) MCF-7/HYOR (MCF-7/HYOR cells [1]) | IC50 (MCF-7 cells; [5]) | IC50 (MCF-7 cells; [6]) | Ratio (1)/(2) MCF-7 (MCF-7 cells) | Incorporation into nucleic acids, infected versus uninfected MCF-7 cells (in words) (MCF-7/HYOR cells [2]) | other results
O=c1cc[nH]c(=O)[nH]1 [uracil] | – | – | – | – | – | – | no difference | –
O=c1[nH]cc(C(F)(F)F)c(=O)[nH]1 [TF-thymine] | – | – | – | – | – | – | no difference | –
O=c1ccn([C@H]2C[C@H](O)[C@@H](CO)O2)c(=O)[nH]1 [dUrd, 2′-deoxyuridine] | – | – | – | – | – | – | – | Reduction of incorporation into nucleic acids in infected MCF-7/HYOR cells in comparison with uninfected MCF-7 cells (MCF-7/HYOR cells [2]): 3 fold
Cc1c[nH]c(=O)[nH]c1=O [thymine] | – | – | – | – | – | – | no difference | –
O=c1[nH]cc(F)c(=O)[nH]1 [5FU, 5-fluorouracil] | 750 ± 240 nM | 530 ± 250 nM | 1.4 | 810 ± 240 nM | 620 ± 290 nM | 1.3 | no difference | IC50 (MCF-7/HYOR cells [1]; [7]): 740 ± 110 nM; IC50 (MCF-7/HYOR cells [1]; [8]): 670 ± 110 nM

Continued, in another order:

IC50 (MCF-7/HYOR cells [1]; [3]) | IC50 (MCF-7/HYOR cells [1]; [4]) | SMILES | Ratio (1)/(2) MCF-7/HYOR (MCF-7/HYOR cells [1]) | IC50 (MCF-7 cells; [5]) | IC50 (MCF-7 cells; [6]) | Ratio (1)/(2) MCF-7 (MCF-7 cells) | Incorporation into nucleic acids, infected versus uninfected MCF-7 cells (in words) (MCF-7/HYOR cells [2]) | other results
13000 ± 2870 nM | 1400 ± 700 nM | O=c1[nH]c(=O)n([C@H]2C[C@H](O)[C@@H](CO)O2)cc1Cl [CldUrd, 5-chloro-2′-deoxyuridine] | 9.3 | 760 ± 190 nM | 640 ± 150 nM | 1.2 | – | –
8600 ± 1170 nM | 840 ± 240 nM | O=c1[nH]c(=O)n([C@H]2C[C@H](O)[C@@H](CO)O2)cc1Br [BrdUrd, 5-bromo-2′-deoxyuridine] | 10 | 590 ± 100 nM | 360 ± 10 nM | 1.6 | – | % of drug-derived radiolabel, In medium, Base (MCF-7/HYOR cell cultures; 1 μCi, 16 h): 49.5%; % of drug-derived radiolabel, In medium, Nucleoside (MCF-7/HYOR cell cultures; 1 μCi, 16 h): 42.0%; % of drug-derived radiolabel, In the cytosol of the cells, 5′-diphosphate (MCF-7/HYOR cell cultures; 1 μCi, 16 h): 0.2%; % of drug-derived radiolabel, In the cytosol of the cells, 5′-monophosphate (MCF-7/HYOR cell cultures; 1 μCi, 16 h): 0.4%; % of drug-derived radiolabel, In the cytosol of the cells, 5′-triphosphate (MCF-7/HYOR cell cultures; 1 μCi, 16 h): 0.2%; % of drug-derived radiolabel, In the cytosol of the cells, Nucleoside/nucleobase (MCF-7/HYOR cell cultures; 1 μCi, 16 h): 6.4%; % of drug-derived radiolabel, Incorporatio into DNA/RNA (MCF-7/HYOR cell cultures; 1 μCi, 16 h): 1.4%; Share incorporated into the nucleic acids in the presence of TPi (MCF-7/HYOR cell cultures; in the presence of TPi): almost all; Reduction of incorporation into nucleic acids in infected MCF-7/HYOR cells in comparison with uninfected MCF-7 cells (MCF-7/HYOR cells [2]): 45 fold; IC50 (MCF-7/HYOR cells [1]; [7]): 2220 ± 1100 nM; IC50 (MCF-7/HYOR cells [1]; [8]): 740 ± 200 nM
12000 ± 500 nM | 310 ± 50 nM | O=c1[nH]c(=O)n([C@H]2C[C@H](O)[C@@H](CO)O2)cc1I [IdUrd, 5-iodo-2′-deoxyuridine] | 39 | 1100 ± 260 nM | 980 ± 390 nM | 1.1 | – | –
1200 ± 800 nM | 68 ± 3 nM | Nc1ccn([C@@H]2O[C@H](CO)[C@@H](O)[C@@H]2O)c(=O)n1 [araC, cytarabine] | 17 | 50 ± 4 nM | 48 ± 9 nM | 1.0 | – | Anti-proliferative activity in MCF-7/HYOR after three days pre-incubation with doxycycline (MCF-7/HYOR cells [1]): restores; Anti-proliferative activity in MCF-7/HYOR after three days pre-incubation with plasmocin (MCF-7/HYOR cells [1]; plasmocin 25 μg/ml): restores
13000 ± 3000 nM | 780 ± 230 nM | Nc1nc(Cl)nc2c1ncn2[C@H]1C[C@H](O)[C@@H](CO)O1 [cladribine] | 17 | 460 ± 150 nM | 390 ± 160 nM | 1.2 | – | Reduction of cytostatic activity in infected MCF-7/HYOR compared to control MCF-7 cells (MCF-7/HYOR cells [1]; M. hyorhinis infection): about 30 fold; Anti-proliferative activity in MCF-7/HYOR after three days pre-incubation with doxycycline (MCF-7/HYOR cells [1]): restores; Anti-proliferative activity in MCF-7/HYOR after three days pre-incubation with plasmocin (MCF-7/HYOR cells [1]; plasmocin 25 μg/ml): restores

Source: patent US20110065663A1, “ANTI-CANCER COMBINATION THERAPY” (Katholieke Universiteit Leuven, K.U. Leuven R&D, priority 2008, published 2011)
